The record followed here is patent publication US7993687B2, “Compositions and methods for management of diabetes” (priority 2006, dated 2011).

Common to all, as to format: cell-based, rat
One assay relates to Akt (Ser473). Put plainly: Western blot of Akt phosphorylation in H4IIE cells. The settings on record: 6 minutes. The protocol:
(§1) Tissue culture media, antibiotics, fetal bovine serum (FBS) and Nunc tissue culture plates were purchased from Invitrogen Canada Inc. (Burlington, Ontario, Canada, L7P 1A1). Insulin (Sigma-Aldrich Canada Ltd., Oakville, Ontario, Canada, L6H 6J8) was dissolved in water and added directly to cells at a concentration of 250 nM unless otherwise indicated. The BWE was prepared and analyzed as described in Example 1. Two μL of the BWE were added directly to cells unless otherwise indicated. This amount was chosen on the basis of equivalence to insulin. Myo-inositol (Sigma-Aldrich Canada Ltd.) and D-chiro-inositol (Industrial Research Ltd., Wellington, New Zealand) were dissolved in water at an equal concentration to the amounts present in the BWE (Table 3) and 2 μL of each solution (0.1% v/v final concentration) was added directly to cells.
(§2) Rat H4IIE hepatoma cells (American Type Culture Collection, CRL 1548) were cultured following the method disclosed by Yau et al., (1998, Eur. J. Biochem. 253: 91-1). The H4IIE cells were maintained in α-modified Eagle's media containing 10% FBS, 2 mM glutamine, 25 μg·mL^−1 streptomycin and 25 units·mL^−1 penicillin. Cells were plated and grown to 70% confluence. All cells were placed into serum-free medium for 72 h before addition of stimulating agents to ensure entry into a quiescent state. […]
(§3) Cellular protein extracts were prepared by addition of 200 μL 2×SDS/gel loading buffer (0.125 M Tris pH 6.8, 2% SDS, 10% glycerol) to H4IIE cells in 12-well culture dishes. The samples were briefly sonicated, and protein content measured using the BCA protein assay kit. […] HRP was detected using the ECL chemiluminescent system after the membranes had been washed four times.
(§4) Quantification of data obtained on film (Kodak X-omat) was accomplished with a GS800 imaging densitometer (Bio-Rad Laboratories) under nonsaturating conditions with local background subtraction. […]
Background: In western blotting, separated proteins are transferred to a membrane and probed.

The test system of a further assay is STAT3 (Tyr705). In words: Western blot of STAT3 phosphorylation in H4IIE cells. The settings on record: 6 minutes. As to the method: as §1, §2, §3, §4
The test system of another assay is H4IIE cells. Put plainly: 3H-deoxyglucose uptake by H4IIE cells. The settings on record: for 3H-deoxy-glucose uptake (basal) by H4IIE cells: insulin 10^-6 M, 2 μL (0.4% v/v) of BWE, D-CI or MI, versus untreated cells. The protocol: Tissue culture media, antibiotics, fetal bovine serum (FBS) and Nunc tissue culture plates were purchased from Gibco-BRL (division of Invitrogen Canada Inc.). Insulin (Sigma-Aldrich Canada Ltd.) was dissolved in water and added directly to cells at a final concentration of 10^−6 M. The buckwheat extract was prepared and analyzed as in Example 1. Two μL of the buckwheat extract were added directly to cells unless otherwise indicated. Myo-inositol (Sigma Aldrich Canada Ltd.) and D-chiro-inositol (Industrial Research Ltd.) were dissolved in water at an equal concentration to the amounts present in the BWE (Table 3) and 2 μL of each solution was added directly to cells.
Rat H4IIE hepatoma cells (American Type Culture Collection, CRL 1548) were cultured as described in Example 3. Briefly, cells were maintained in α-modified Eagle's media containing 10% FBS, 2 mM glutamine, 50 μg·mL^−1 streptomycin and 50 μg·mL^−1 penicillin. Cells were plated and grown to 70% confluence. All cells were placed into serum-free medium for 72 h before addition of stimulating agents to ensure entry into a quiescent state.
^3H-deoxyglucose uptake was assayed using the method disclosed by Harrison et al. (1990, J. Biol. Chem. 265(10):5793-5801). Quiescent H4IIE cells, in 24-well culture dishes containing 1 mL serum-free medium, were washed three times with physiological salt solution (PSS) ([…], pH 7.4). Cells were placed into 0.5 mL PSS and pre-incubated with inhibitors for 10 minutes prior to the 20 minute stimulation with treatments (insulin, BWE, D-CI, MI). For all experiments, insulin was added at a concentration of 10^−6 M whereas 2 μL volumes of the BWE, D-CI, or MI (0.4% v/v final concentration) were added to cells unless otherwise indicated in figures. Sugar uptake was initiated by the addition of ^3H-deoxyglucose to a final assay concentration of 0.1 mM glucose (1 mCi/mL) and the cells were subsequently incubated for 5 minutes at 37° C. After two rapid washes with ice-cold PSS (0.5-1 mL/well), the cells were solubilized with 0.4 mL of 0.1% SDS, and ^3H was detected in 3 mL of EcoLume scintillant (MP Biomedicals Inc., Costa Mesa, Calif., USA, 92626).
Statistical significance between treatments was determined by one-way ANOVA and by Duncan's multiple range test for means testing (SAS v.9.1, SAS Institute Inc., Cary, N.C.). […] Data are expressed as the mean±SE.
Since insulin has the same effect, we compared the ability of BWE, insulin and two insulin-mimetic compounds (D-CI and MI) to stimulate glucose uptake by H4IIE hepatoma cells. […] Radio-labelled deoxyglucose was added to the medium and glucose uptake was determined by the detection of ^3H in cells.
Fractions (˜1.0 ml) from each solvent extraction were collected and assayed for their effects on MAPK activation as described in Example 3. The effects of selected fractions, alone or in combination with insulin, on the uptake of labelled glucose were assessed following the methods described in Example 4. […] The effects of the solvent fractions on H4IIE cells were assessed with 20-min exposure periods after which, sugar uptake was initiated by the addition of ^3H-deoxyglucose to a final assay concentration of 0.1 mM glucose (1 mCi/mL) and the cells were subsequently incubated for 5 minutes at 37° C. After two rapid washes with ice-cold PSS (0.5-1 mL/well), the cells were solubilized with 0.4 mL of 0.1% SDS, and ^3H was detected in 3 mL of EcoLume scintillant. […]

On to `O[C@H]1[C@H](O)[C@@H](O)[C@H](O)[C@@H](O)[C@H]1O` [MI, myo-inositol], for which the “phosphorylation of Akt” value in the assay with Akt (Ser473) was “do not provide comparable stimulation”. Besides, the “phosphorylation of STAT3” value with STAT3 (Tyr705) is reported as “do not provide comparable stimulation”. The “3H-deoxy-glucose uptake (basal) by H4IIE cells” value (shortened to “3H-deoxy-glucose uptake (basal)”) in the assay on H4IIE cells was “not statistically different from untreated cells”.

On to `COc1cccc(-c2cc(=O)c3ccccc3o2)c1N` [PD98059], for which the “effect of the inhibitor on insulin-stimulated glucose uptake (FIG. 23)” value with H4IIE cells (H4IIE cells, pre-incubated with inhibitor, then insulin) is reported as “decreased insulin-stimulated glucose uptake”.

On to “insulin: Insulin (Sigma-Aldrich) dissolved in water, positive comparator”, for which the “phosphorylation of Akt” value in the assay on Akt (Ser473) is recorded as “phosphorylated in response to insulin”. Moreover, in the assay on STAT3 (Tyr705), the “phosphorylation of STAT3” value is given as “phosphorylated in response to insulin”. In the assay on H4IIE cells, the “3H-deoxy-glucose uptake (basal)” value is “stimulated glucose uptake”.

On to `OC1C(O)C(O)C(O)C(O)C1O` [D-CI, D-chiro-inositol], for which the “phosphorylation of Akt” value in the assay on Akt (Ser473) is “do not provide comparable stimulation”. In addition, in the assay with STAT3 (Tyr705), the “phosphorylation of STAT3” value was “do not provide comparable stimulation”. The “3H-deoxy-glucose uptake (basal)” value in the assay on H4IIE cells is “stimulated glucose uptake”.
